Results taken from ChEMBL document CHEMBL1138903, “Secondary amides of sulfonylated 3-amidinophenylalanine. New potent and selective inhibitors of matriptase” (J Med Chem, 2006).
pIC50, pKi: −log10 of the molar value.

Assays:
Prothrombin [1] = target: T1, Prothrombin (Homo sapiens, UniProt P00734); assay: Inhibition of thrombin
PC-3 [2] = assay: Reduction of dissemination into thorax in nude mouse xenografted with PC3 cell line at 5 mg/kg, ip; format: functional; design: scale not given: the % may be the effect or the level left; details: route intraperitoneal
Plasminogen = Plasminogen (Homo sapiens, UniProt P00747); assay: Inhibition of plasmin
Chain of Plasminogen (P00747 97-580 limits assumed): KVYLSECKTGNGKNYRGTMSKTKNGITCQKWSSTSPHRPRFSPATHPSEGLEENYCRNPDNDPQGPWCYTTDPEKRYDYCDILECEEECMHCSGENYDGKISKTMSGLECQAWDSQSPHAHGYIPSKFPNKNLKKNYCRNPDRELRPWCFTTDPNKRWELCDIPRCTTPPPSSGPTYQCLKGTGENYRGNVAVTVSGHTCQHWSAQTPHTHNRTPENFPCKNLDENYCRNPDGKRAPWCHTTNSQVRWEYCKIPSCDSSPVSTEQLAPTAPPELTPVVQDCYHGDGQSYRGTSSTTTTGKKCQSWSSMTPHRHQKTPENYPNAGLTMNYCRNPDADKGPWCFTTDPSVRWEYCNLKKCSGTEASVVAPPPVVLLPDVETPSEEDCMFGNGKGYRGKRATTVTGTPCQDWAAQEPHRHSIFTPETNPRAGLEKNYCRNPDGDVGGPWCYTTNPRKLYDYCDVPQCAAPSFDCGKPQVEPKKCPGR
Chain of Plasminogen (P00747 581-810 limits assumed): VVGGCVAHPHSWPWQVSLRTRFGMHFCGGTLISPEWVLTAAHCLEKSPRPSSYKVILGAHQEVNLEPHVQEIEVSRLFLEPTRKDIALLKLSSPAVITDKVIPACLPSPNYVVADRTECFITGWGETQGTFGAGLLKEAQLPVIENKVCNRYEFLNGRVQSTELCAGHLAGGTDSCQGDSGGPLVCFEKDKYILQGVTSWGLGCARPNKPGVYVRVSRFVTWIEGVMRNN

[3] = target: Coagulation factor VII/tissue factor (Homo sapiens) (UniProt P08709+P13726); details: Blood
Description: Anticoagulant activity in blood by PT assay

[4] = target: Urokinase-type plasminogen activator (Homo sapiens, UniProt P00749); assay: Inhibition of uPA
Coagulation factor X = Coagulation factor X (Homo sapiens, UniProt P00742); assay: Inhibition of f10a
Chain of Coagulation factor X (P00742 41-179 limits assumed): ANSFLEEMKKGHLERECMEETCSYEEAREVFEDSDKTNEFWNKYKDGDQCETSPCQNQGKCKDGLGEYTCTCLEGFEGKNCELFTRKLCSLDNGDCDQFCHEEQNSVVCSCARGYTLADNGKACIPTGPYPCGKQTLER
Chain of Coagulation factor X (P00742 235-488 limits assumed): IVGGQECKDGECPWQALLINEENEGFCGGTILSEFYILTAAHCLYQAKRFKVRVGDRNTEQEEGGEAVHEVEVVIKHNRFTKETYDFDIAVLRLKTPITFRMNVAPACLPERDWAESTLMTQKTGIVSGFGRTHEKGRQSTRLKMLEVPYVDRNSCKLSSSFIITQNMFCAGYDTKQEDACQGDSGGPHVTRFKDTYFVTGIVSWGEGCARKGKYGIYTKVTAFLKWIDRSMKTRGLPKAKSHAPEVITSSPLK

[5] = target: T2, Suppressor of tumorigenicity 14 protein (Homo sapiens, UniProt Q9Y5Y6)
T2 sequence (Q9Y5Y6 whole entry): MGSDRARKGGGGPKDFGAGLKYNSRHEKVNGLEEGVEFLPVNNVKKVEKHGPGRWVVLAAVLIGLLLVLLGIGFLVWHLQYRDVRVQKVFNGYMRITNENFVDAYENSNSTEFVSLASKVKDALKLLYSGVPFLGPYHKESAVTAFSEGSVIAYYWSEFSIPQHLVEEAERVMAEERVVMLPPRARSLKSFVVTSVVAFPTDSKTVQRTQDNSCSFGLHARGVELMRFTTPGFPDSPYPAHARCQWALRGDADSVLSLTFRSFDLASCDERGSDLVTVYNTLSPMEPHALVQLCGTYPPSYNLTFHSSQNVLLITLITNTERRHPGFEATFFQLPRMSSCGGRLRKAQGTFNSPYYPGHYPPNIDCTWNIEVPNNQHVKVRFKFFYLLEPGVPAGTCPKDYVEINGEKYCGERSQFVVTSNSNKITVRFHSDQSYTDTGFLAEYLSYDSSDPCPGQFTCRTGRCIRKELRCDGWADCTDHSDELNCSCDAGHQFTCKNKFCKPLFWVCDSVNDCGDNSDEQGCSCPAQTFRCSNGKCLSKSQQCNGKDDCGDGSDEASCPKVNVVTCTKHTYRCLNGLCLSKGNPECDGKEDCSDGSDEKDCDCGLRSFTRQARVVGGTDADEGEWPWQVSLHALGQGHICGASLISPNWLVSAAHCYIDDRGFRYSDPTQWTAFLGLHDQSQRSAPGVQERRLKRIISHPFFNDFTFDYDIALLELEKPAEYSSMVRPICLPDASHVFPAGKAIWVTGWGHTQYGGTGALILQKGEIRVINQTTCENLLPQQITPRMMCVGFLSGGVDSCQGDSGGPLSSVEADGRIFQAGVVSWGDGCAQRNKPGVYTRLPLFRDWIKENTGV

[6] = Anticoagulant activity in blood by aPTT assay; format: functional, Homo sapiens
Prothrombin [7] = target: T1, Prothrombin; details: Blood
PC-3 [8] = assay: Reduction of median primary tumor growth of PC3 cell line xenografted in nude mouse at 5 mg/kg, ip; format: functional, Homo sapiens; design: scale not given: the % may be the effect or the level left; details: route intraperitoneal
[9] = target: T2, Suppressor of tumorigenicity 14 protein; assay: Reduction of matriptase-catalyzed pro-HGF to HGF processing; format: functional

pKi (Prothrombin [1]) | pKi (Plasminogen) | IC200 [3] [µM] | pKi [4] | pKi (Coagulation factor X) | pKi [5] | IC200 (Prothrombin [7]) [µM] | pIC50 [9] | SMILES | Activity (PC-3 [2]) [%] | IC200 [6] [µM] | Activity (PC-3 [8]) [%]
4.57 | 5.62 | > 10 | 5.44 | 4.68 | 8.18 | > 10 | – | N=C(N)c1cccc(C[C@H](NS(=O)(=O)c2cccc(NC(=O)CCN)c2)C(=O)N2CCC(CCN)CC2)c1 | 33 | >10 | 40
7.00 | 5.85 | 1.6 | 5.47 | 5.66 | 7.89 | 0.27 | – | N=C(N)NCCC1CCN(C(=O)[C@H](Cc2cccc(C(=N)N)c2)NS(=O)(=O)c2ccc(Oc3ccccc3)nc2)CC1 | – | 1.5 | –
5.77 | 5.51 | – | 5.09 | 5.89 | 7.59 | – | 5.52 | N=C(N)c1cccc(C[C@H](NS(=O)(=O)c2ccc(C3CCCCC3)cc2)C(=O)N2CCN(C(=N)N)CC2)c1 | – | – | –
5.40 | 5.55 | > 10 | 5.74 | 4.89 | 8.82 | > 10 | – | N=C(N)c1cccc(C[C@H](NS(=O)(=O)c2cccc(NC(=O)CCN)c2)C(=O)N2CCC(CCCN=C(N)N)CC2)c1 | – | >10 | –
6.96 | 4.70 | 3.8 | 5.89 | 4.57 | – | 0.32 | – | N=C(N)NCCC1CCN(C(=O)[C@H](Cc2cccc(C(=N)N)c2)NS(=O)(=O)c2ccc3ccccc3c2)CC1 | 53 | 2.7 | 17
5.82 | 5.38 | – | 4.25 | 4.10 | 6.16 | – | – | N=C(N)c1cccc(C[C@H](NS(=O)(=O)CCc2cccc3ccccc23)C(=O)N2CCN(C(=O)CCN=C(N)N)CC2)c1 | – | – | –
5.59 | 4.92 | – | 4.37 | 3.89 | 6.40 | – | – | N=C(N)NCCC(=O)N1CCN(C(=O)[C@H](Cc2cccc(C(=N)N)c2)NS(=O)(=O)Cc2ccc3ccccc3c2)CC1 | – | – | –
5.40 | 5.74 | – | 5.92 | 5.70 | 8.38 | – | – | N=C(N)NCCC(=O)Nc1cccc(S(=O)(=O)N[C@@H](Cc2cccc(C(=N)N)c2)C(=O)N2CCC(CCNC(=N)N)CC2)c1 | – | – | –
5.80 | 5.85 | – | 6.09 | 5.54 | 7.24 | – | – | CC(C)c1cc(C(C)C)c(S(=O)(=O)N[C@@H](Cc2cccc(C(=N)N)c2)C(=O)N2CCN(C(=O)CCN=C(N)N)CC2)c(C(C)C)c1 | – | – | –
6.24 | 5.51 | – | 5.40 | 5.00 | 6.60 | – | – | N=C(N)NCCC(=O)N1CCN(C(=O)[C@H](Cc2cccc(C(=N)N)c2)NS(=O)(=O)c2ccc(-c3ccccc3)cc2)CC1 | – | – | –
6.57 | 6.08 | – | 5.44 | 5.64 | 7.28 | – | – | N=C(N)c1cccc(C[C@H](NS(=O)(=O)c2ccc(Cc3ccncc3)cc2)C(=O)N2CCC(CCN=C(N)N)CC2)c1 | – | – | –
6.38 | 5.51 | – | 5.11 | 5.40 | 7.68 | – | – | N=C(N)c1cccc(C[C@H](NS(=O)(=O)c2ccc3c(c2)C(=O)c2ccccc2C3=O)C(=O)N2CCC(C(=O)NCCN)CC2)c1 | – | – | –
6.22 | 6.14 | – | 5.68 | 4.18 | 6.80 | – | – | N=C(N)c1cccc(C[C@H](NS(=O)(=O)c2ccc3ccccc3c2)C(=O)N2CCC(CCCN)CC2)c1 | – | – | –
6.77 | 5.92 | – | 5.68 | 4.47 | 7.38 | – | – | N=C(N)NCCCC1CCN(C(=O)[C@H](Cc2cccc(C(=N)N)c2)NS(=O)(=O)c2ccc3ccccc3c2)CC1 | – | – | –
4.80 | 6.03 | – | 5.92 | 5.20 | 6.42 | – | – | CC(C)c1cc(C(C)C)c(S(=O)(=O)N[C@@H](Cc2cccc(C(=N)N)c2)C(=O)N2CCC(C(=O)NCCN)CC2)c(C(C)C)c1 | – | – | –
6.21 | 6.36 | – | 6.09 | 5.92 | 7.19 | – | – | CC(C)c1cc(C(C)C)c(S(=O)(=O)N[C@@H](Cc2cccc(C(=N)N)c2)C(=O)N2CCCN(C(=O)CCN=C(N)N)CC2)c(C(C)C)c1 | – | – | –
7.29 | 5.70 | – | 5.72 | 5.74 | 7.06 | – | – | N=C(N)NCCC1CCN(C(=O)[C@H](Cc2cccc(C(=N)N)c2)NS(=O)(=O)c2ccc(C3CCCCC3)cc2)CC1 | – | – | –

SMILES | pKi (Prothrombin [1]) | pKi (Plasminogen) | IC200 [3] [µM] | pKi [4] | pKi (Coagulation factor X) | pKi [5] | IC200 (Prothrombin [7]) [µM] | pIC50 [9] | Activity (PC-3 [2]) [%] | IC200 [6] [µM] | Activity (PC-3 [8]) [%]
N=C(N)c1cccc(C[C@H](NS(=O)(=O)c2ccc(NC(=O)CCN)cc2)C(=O)N2CCC(CCN)CC2)c1 | 5.06 | 5.92 | – | 6.09 | 4.82 | 7.55 | – | – | – | – | –
